Structures can show the parent of a compound that is named as a salt. Where two headings read alike, the source gives them in different places.
What was measured:
[1] = tested on: Escherichia coli BAA-2340 (KPC); assay: In vitro antibacterial activity, agar dilution MIC; format: cell-based; details: BAA2340, Table 2, BAA-2340 Escherichia coli
Text: (§1) Experimental strains: all experimental standard bacterial strains for enzyme production were purchased from ATCC, and the clinically separated CRE strain was purchased from Southwest Hospital of the Third Military Medical University.
(§2) Experimental Method: Agar dilution method, referring to M100-S23: Performance Standards for Antimicrobial Susceptibility Testing: Twenty-Third Informational Supplement (Clinical And Laboratory Standards Institute, 2013). Minimal inhibitory concentration (MIC, μg/mL) was calculated.

[2] = tested on: Enterobacter cloacae 7494ecl-295 (NDM, ESBLs, AmpC); assay: In vitro antibacterial activity on clinically separated CRE strain, agar dilution MIC; format: cell-based; details: Table 3, 7494ecl-295 Enterobacter cloacae
Text: as §1, §2

[3] = tested on: Klebsiella pneumoniae 7526kpn-640 (KPC, ESBLs); assay: as above; format: cell-based; details: Table 3, 7526kpn-640 Klebsiella pneumoniae
Text: as §1, §2

[4] = tested on: Citrobacter freundii 7520cfr-167 (NDM, OXA-10, ESBLs); assay: as above; format: cell-based; details: Table 3, 7520cfr-167 Citrobacter freundii
Text: as §1, §2

[5] = tested on: Klebsiella pneumoniae 7460kpn-607 (NDM, ESBLs); assay: as above; format: cell-based; details: Table 3, 7460kpn-607 Klebsiella pneumoniae
Text: as §1, §2

[6] = tested on: Citrobacter freundii 7521cfr-169 (NDM, ESBLs, AmpC); assay: as above; format: cell-based; details: Table 3, 7521cfr-169 Citrobacter freundii
Text: as §1, §2

[7] = tested on: Klebsiella pneumoniae 7463kpn-610 (ESBLs); assay: as above; format: cell-based
Text: as §1, §2

[8] = tested on: Klebsiella pneumoniae 7477kpn-624 (NDM, ESBLs); assay: as above; format: cell-based; details: Table 3, 7477kpn-624 Klebsiella pneumoniae
Text: as §1, §2

[9] = tested on: Escherichia coil 7440eco-641 (ESBLs); assay: as above; format: cell-based; details: Table 3, 7440eco-641 Escherichia coil
Text: as §1, §2

[10] = tested on: Escherichia coli 7438eco-639 (NDM, ESBLs); assay: as above; format: cell-based; details: Table 3, 7438eco-639 Escherichia coli
Text: as §1, §2

[11] = tested on: Enterobacter cloacae 7511ecl-312 (NDM, ESBLs, AmpC); assay: as above; format: cell-based; details: Table 3, 7511ecl-312 Enterobacter cloacae
Text: as §1, §2

[12] = tested on: Enterobacter cloacae 7495ecl-296 (IMP, ESBLs, AmpC); assay: as above; format: cell-based; details: Table 3, 7495ecl-296 Enterobacter cloacae
Text: as §1, §2

[13] = tested on: Klebsiella pneumoniae 7484kpn-631 (IMP, ESBLs); assay: as above; format: cell-based
Text: as §1, §2

[14] = tested on: Enterobacter cloacae 7513ecl-314 (AmpC); assay: as above; format: cell-based
Text: as §1, §2

[15] = tested on: Enterobacter cloacae 7498ecl-299 (ESBLs, AmpC); assay: as above; format: cell-based; details: Table 3, 7498ecl-299 Enterobacter cloacae
Text: as §1, §2

[16] = tested on: Klebsiella pneumoniae 7450kpn-597 (KPC, ESBLs); assay: as above; format: cell-based; details: Table 3, 7450kpn-597 Klebsiella pneumoniae
Text: as §1, §2

AmpC = target: T1, AmpC (UniProt P05364); assay: β-lactamase inhibition, Nitrocefin hydrolysis; format: biochemical; details: Nitrocefin 0.1 mM
T1 construct: The concentration of purchased β-lactamases mother liquor was 1 mg/mL, and the mother liquor was dissolved in 50% glycerol
Experimental: Nitrocefin, a kind of cephalosporin antibiotics, is sensitive to most of β-lactamases, and changes in color after being hydrolyzed. The hydrolysis rate of Nitrocefin was measured by real-time recording corresponding absorbance of reaction system. β-Lactamase inhibitors could inhibit hydrolysis of the enzymes to Nitrocefin, and reduce hydrolysis rate. By measuring reaction rates in the same reaction system under different inhibitor concentrations, the IC50 (half maximal inhibitory concentration) values of inhibitors were calculated.
Nitrocefin was dissolved in DMSO to form a solution with concentration of 2 mM, which was sub-packaged and stored at −20° C. The concentration of purchased β-lactamases mother liquor was 1 mg/mL, and the mother liquor was dissolved in 50% glycerol. A part of mother liquor was taken and diluted by 1000 times in reaction solution, sub-packaged and stored at ˜20° C.
The compounds to be tested were dissolved in DMSO to form a mother liquor with concentration of 10 mM. If not used that day, the mother liquor was stored at −20° C. Its test final concentrations were: 100 μM, 25 μM, 6.25 μM, 1.563 μM, 390.6 nM, 97.66 nM, 24.41 nM, 6.10 nM, 1.53 nM, 0.381 nM, 0.095 nM.

[17] = Pharmacokinetics in SD rats (iv); format: in vivo, SD rat; details: male, plasma; for half-life / clearance: SD, rat, iv, 1 mg/kg; for clearance: read-out: Cl—obs (converted); for Vd / AUC(0-t): SD rat, iv 1 mg/kg; for Vd: apparent volume of distribution, read-out: Vss—obs; for AUC(0-t): area under the curve 0→t
Experimental: Experimental Example 1: Pharmacokinetics Experiments of the Compound of the Present Invention in Rats Test animals: 3 male SD rats, bodyweight 200-250 g for each animal. Test samples were administrated via intravenous push (iv), dosage of administration was 1 mg/kg, volume of administration was 2 mL/kg. Collecting time points: iv: after administration 0.083 […]. At each time point, about 100 μL of whole blood was sampled via caudal vein, added to K2EDTA anti-coagulative tube, centrifuged in a refrigerated centrifuge under 8000 rpm for 6 min to separate plasma, and the plasma was stored in -80° C. refrigerator. Plasma (20 μL) was taken and placed in a 96-well deep-well plate, and internal standard solution (300 μL) was added, subjected to vortex for 5 min, then centrifuged under 12000 rpm for 5 min, and then supernatant (200 μL) was taken and subjected to vortex for 3 min; to be analyzed by LC-MS/MS. Plasma (30 μL) was taken and placed in 1.5 mL EP tube, and internal standard solution (300 μL) was added, subjected to vortex for 5 min, then centrifuged under 12000 rpm for 5 min, and then supernatant (200 μL) was taken and subjected to vortex for 3 min; to be analyzed by LC-MS/MS. Plasma (30 μL) was taken and placed in a 96-well deep-well plate, and internal standard solution (200 μL) was added, subjected to vortex for 5 min, then centrifuged under 4000 rpm for 20 min, and then supernatant (100 μL) was taken and water (100 μL) was added, and subjected to vortex homogeneously; to be analyzed by LC-MS/MS.

[18] = Table 3, 7463kpn-610 Klebsiella pneumoniae
[19] = Table 3, 7484kpn-631 Klebsiella pneumoniae
[20] = Table 3, 7513ecl-314 Enterobacter cloacae
[21] = Experiment 1, enzyme 0.4 nM, read-out: IC50 Type C AmpC

In the case of `NC(=O)[C@@H]1CC[C@@H]2CN1C(=O)N2OS(=O)(=O)O` [AVI sodium salt, Avibactam, reference compound], the MIC [1] is reported as 8 µg/mL, the MIC [2] is reported as over 8 µg/mL and the MIC [3] is reported as over 8 µg/mL. For the same compound, the MIC [4] was over 8 µg/mL, the MIC [5] was over 8 µg/mL and the MIC [6] was 8 µg/mL. It also gave an MIC [7, 18] of 8 µg/mL, an MIC ([7]; first Table 4, 7463kpn-610 Klebsiella pneumoniae) of 32 µg/mL and an MIC [8] of over 8 µg/mL. It also gave an MIC [9] of 8 µg/mL, an MIC [10] of 8 µg/mL and an MIC [11] of over 8 µg/mL. The MIC [12] was over 8 µg/mL, the MIC [13, 19] was over 8 µg/mL and the MIC ([13]; first Table 4, 7484kpn-631 Klebsiella pneumoniae) was 16 µg/mL. For the same compound, the MIC [14, 20] was over 8 µg/mL, the MIC ([14]; first Table 4, 7513ecl-314 Enterobacter cloacae) was 32 µg/mL and the MIC [15] was over 8 µg/mL. The MIC [16] was over 8 µg/mL, the IC50 (AmpC; [21]) was 101 nM and the half-life [17] was 24.6 min. The clearance [17] was 14.9 mL/min/kg, the Vd [17] was 0.535 L/kg and the AUC(0-t) [17] was 1140 ng·h/mL.
In the case of `O=C(NC1CC2(CNC2)C1)[C@@H]1CC[C@@H]2CN1C(=O)N2OS(=O)(=O)O` [Compound 2, (2S,5R)-2-((2-azaspiro[3.3]heptan-6-yl)carbamoyl)-7-oxo-1,6-diazabicyclo[3.2.1]octan-6-yl hydrogen sulfate], the MIC [1] is reported as 0.5 µg/mL, the MIC [2] is reported as 2 µg/mL and the MIC [3] is reported as 4 µg/mL. It also gave an MIC [4] of 2 µg/mL, an MIC [5] of 2 µg/mL and an MIC [6] of 2 µg/mL. For the same compound, the MIC [7, 18] was 2 µg/mL, the MIC [8] was 2 µg/mL and the MIC [9] was 2 µg/mL. It also gave an MIC [10] of 2 µg/mL, an MIC [11] of 2 µg/mL and an MIC [12] of 2 µg/mL. It also gave an MIC [13, 19] of 2 µg/mL, an MIC [14, 20] of 2 µg/mL and an MIC [15] of 2 µg/mL. The MIC [16] was 2 µg/mL, the IC50 (AmpC; read-out: IC50 AmpC, Experiment 2, enzyme 1.6 nM) was 17.4 nM and the IC50 (AmpC; read-out: IC50 Type C AmpC, Experiment 1, enzyme 0.4 nM) was 32.6 nM. The half-life [17] was 44.4 min, the clearance [17] was 6.67 mL/min/kg and the Vd [17] was 0.261 L/kg. The AUC(0-t) [17] was 2500 ng·h/mL.
Compound `O=C(NC1CCNCC1)[C@@H]1CC[C@@H]2CN1C(=O)N2OS(=O)(=O)O` [MK-7655, reference compound] has an MIC [1] of over 16 µg/mL, an MIC [2] of over 8 µg/mL and an MIC [3] of over 8 µg/mL. For the same compound, the MIC [4] was over 8 µg/mL, the MIC [5] was over 8 µg/mL and the MIC [6] was over 8 µg/mL. It also gave an MIC [7, 18] of over 8 µg/mL, an MIC [8] of over 8 µg/mL and an MIC [9] of over 8 µg/mL. For the same compound, the MIC [10] was over 8 µg/mL, the MIC [11] was over 8 µg/mL and the MIC [12] was over 8 µg/mL. It also gave an MIC [13, 19] of over 8 µg/mL, an MIC [14, 20] of over 8 µg/mL and an MIC [15] of over 8 µg/mL. The MIC [16] was over 8 µg/mL, the IC50 (AmpC; [21]) was 49.5 nM and the half-life [17] was 23.4 min. The clearance [17] was 16.7 mL/min/kg, the Vd [17] was 0.409 L/kg and the AUC(0-t) [17] was 1020 ng·h/mL.

Source: patent publication US10167283B2, “β-lactamase inhibitors and uses thereof” (priority 2015, dated 2019)
